# Measurements: US20200157135A1, “SIDE-CHAIN MODIFIED ERGOSTEROL AND STIGMASTEROL DERIVATIVES AS LIVER X RECEPTOR MODULATORS” (Ospedale San Raffaele srl, priority 2017, published 2020)
# Entries after “also recorded” stand apart in the source; their conditions may differ. Where two headings read alike, the source gives them in different places.
# What was measured:
# hLXRα = molecular target: T1, hLXRα (Homo sapiens, UniProt Q13133); experiment: luciferase assay with GAL-4 chimeric hLXRα receptor in human embryonic kidney 293 cells; assay type: cell-based; settings: for EC50: GAL4-hLXRα luciferase, HEK293, dose-response 32-1 μM, mean of three-five independent experiments, read-out: LXRα EC50 (μM) ± SD; for Emax: HEK293, 24 h, read-out: LXRα Efficacy (%) ± SD; for LXR isoform selectivity profile: LXRα versus LXRβ, GAL4 luciferase assays
# T1 sequence (Q13133 209-447 limits assumed): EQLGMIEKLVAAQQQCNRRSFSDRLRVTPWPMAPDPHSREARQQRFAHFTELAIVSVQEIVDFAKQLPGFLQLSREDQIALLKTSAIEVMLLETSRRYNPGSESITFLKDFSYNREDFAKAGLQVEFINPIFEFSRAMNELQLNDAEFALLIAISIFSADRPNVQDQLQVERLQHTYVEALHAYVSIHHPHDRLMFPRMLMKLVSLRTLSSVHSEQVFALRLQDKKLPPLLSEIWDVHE
# Experimental: (§1) All the synthesized compounds were first tested for their ability to activate LXRs by using luciferase assays with GAL-4 chimeric receptors. These were performed by co-transfecting plasmids encoding hLXRα- and β-binding domains fused to GAL-4, with the respective responsive element conjugated with the luciferase reporter gene into the human embryonic kidney 293 cells.
# (§2) Cell Culture and Co-transfection Assays. Human embryonic Kidney 293 cells (American Type Culture Collection) were cultured in Dulbecco's Modified Eagle's medium containing 10% of fetal bovine serum at 37° C. in humidified atmosphere of 5% CO2. HEK293 cells (4×10^4 cells per well) were transiently transfected in 48 well plate with the reporter plasmids pMH100X4-TK-luc (100 ng/well), Renilla (22 ng/well) together with 100 ng/well of pCMX-Gal4-RXR, pCMX-Gal4-PPAR-γ, pCMX-Gal4-PXR, pFA-CMV-FXR pCMX-Gal4-LXR-α or pCMX-Gal4-LXR-β plasmids using X-tremeGENE 9 DNA Transfection Reagent (Roche). Six hours after transfection, the cells were treated with the appropriate compound for 24 hours. Luciferase activities were analyzed by luciferase Dual Reporter Assay Systems (Promega) according to the manufacturer's protocol. GAL4-LXRs, GAL4-PPAR-γ, GAL4-RXR and TK-MHC100-luc plasmids were described in Villablanca et al.49 GAL4-PXR was a kind gift of Dr. Enrique Sainz (The Scripps Research Institute, La Jolla, USA). GAL4-FXR was a kind gift of Dr. Daniel Merk (Goethe-University Frankfurt am Main). The results obtained by luciferase assays and reported in Table 1 are from three to five independent experiments.
# (§3) Statistical analysis. Data are expressed as mean±SEM and were analyzed for significance by ANOVA with Dunnet's multiple comparison tests. The analysis was performed with Prism software. Data in Table 1 are expressed as EC50±SD. In particular, the standard deviations were obtained by calculating the mean of the EC50 of each experiment (three to five independent experiments). The efficacy (%) of the compounds was calculated as the percentage of the compound effect, in terms of LXRα or β activation, versus 8 μM of 22R—HC±SD. The analyses were performed with Prism software.
# hPXR = experiment: luciferase assay GAL4-hPXR in human embryonic kidney 293 cells; assay type: cell-based; settings: compounds at 10 μM
# Experimental: Human embryonic kidney 293 cells were co-transfected with GAL4-hRXR (A), GAL4-hPPARγ (B), GAL4-hPXR (C) and GAL4-hFXR (D) expression plasmids together with GAL4 responsive element pMHC100X4-TK-luc and Renilla plasmids. Cells were incubated with vehicle (DMSO), PFMs at the concentration of 10 μM, and the nuclear receptor specific ligands 9cis retinoic acid (100 nM) (A), Rosiglitazone (RSG 100 nM) (B), T0901317 (100 nM) (C) and GW4064 (100 nM) (D) for six hours. The values represent mean±S.D. RLA, relative luciferase activity.
# The selectivity of our compounds within the nuclear receptor superfamily was also evaluated by luciferase assays using GAL4-RXR, -PPARγ, -PXR and -FXR plasmids.
# as §2
# MCP-1/CCL2 = experiment: qPCR of CCL2 expression in differentiated U937 cells treated with LPS; assay type: cell-based, human; settings: differentiated U937, 6 hours, 10 μM in combination with LPS (100 ng/ml)
# Experimental: (§4) U937 cells differentiated with PMA for 72 hours were treated with LPS (100 ng/ml) in combination with T0901317 (10 μM) or with the title compounds (10 μM). […] (n=3/group). *p<0.05, **p<0.01, ***p<0.001.
# (§5) Quantitative Real-Time-PCR. U937 cell line was differentiated in foam macrophages with phorbol 12-myristate 13-acetate (PMA) 10 ng/ml (Sigma) for 72 hours at 37° C. in […] at the concentration of 3×10^6 cells in 10 ml RPMI 10% FBS. At day 3 nuclear receptor ligands were added for 6 hours. HepG2 cells were treated with the ligands as described by Quinet et al.22 Total RNA was purified by TRIZOL (Invitrogen, Carlsbad, Calif., USA). Reverse transcription was performed incubating 2 μg of total RNA 1 hour at 42° C. with MLV-reverse transcriptase (Promega). Quantitative PCR was performed using Sybr Green Master Mix (Applied Biosystems) and real-time PCR (Viia 7 Real Time PCR System, Applied Biosystems). All PCR reactions were done in triplicate. The comparative Ct method was used to quantify transcripts that were normalized for human GAPDH. the following primer pairs were used: […]
# TNFα = experiment: qPCR of TNFα expression in differentiated U937 cells treated with LPS; assay type: cell-based, human; settings: differentiated U937, 6 hours, 10 μM in combination with LPS (100 ng/ml)
# Experimental: as §4, §5
# hLXRβ = molecular target: T2, hLXRβ (Homo sapiens, UniProt P55055); experiment: luciferase assay with GAL-4 chimeric hLXRβ receptor in human embryonic kidney 293 cells; assay type: cell-based; settings: for EC50: GAL4-hLXRβ luciferase, HEK293, dose-response 32-1 μM, mean of three-five independent experiments, read-out: LXRβ EC50 (μM) ± SD
# T2 sequence (P55055 222-460 limits assumed): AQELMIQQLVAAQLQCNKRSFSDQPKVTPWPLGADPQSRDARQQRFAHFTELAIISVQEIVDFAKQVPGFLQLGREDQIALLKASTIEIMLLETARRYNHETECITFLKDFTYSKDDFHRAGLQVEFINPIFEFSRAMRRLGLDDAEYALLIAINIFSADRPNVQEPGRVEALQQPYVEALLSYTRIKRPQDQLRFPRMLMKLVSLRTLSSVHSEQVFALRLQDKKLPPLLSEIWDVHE
# Experimental: as §1, §2, §3
# ABCA1 [1] = experiment: qPCR of ABCA1 expression in PMA-differentiated U937 cells; assay type: cell-based, human; settings: U937 differentiated with PMA 72 h; 10 μM, 6 hours
# Experimental: (§6) U937 cells differentiated with PMA for 72 hours were treated with T0901317 (10 μM), 22R—HC (3) or with the tested compound (10 μM). […] (n=3/group). *p<0.05, **p<0.01, ***p<0.001.
# (§7) LXR agonists induce the expression of target genes, which are involved in cholesterol homeostasis, particularly in the reverse cholesterol transport pathway.43 Indeed, LXR agonists induce the expression of ABCA1 both in macrophages and in many tissues of the periphery such as the intestine.44 Moreover, ABCA1 regulates cholesterol efflux to APOAI acceptors.45 In the liver, LXR activation promotes the biosynthesis of fatty acids, a process also termed as de novo lipogenesis by inducing the expression of the master regulator of hepatic lipogenesis sterol-regulatory element-binding protein 1C (SREBP-1c), as well as several downstream genes in the SREBP-1c pathway, including steroyl CoA desaturase 1 (SCD1) and fatty acid synthase (FASN).43 Therefore, it was investigated, by quantitative PCR (qPCR), the expression of ABCA1, SREBP1c, FASN, and SCD1, by using RNA from monocytic U937 cells (FIG. 3) and from hepatic HepG2 cells (FIG. 4) stimulated with our compounds, the non-steroidal agonist T0901317 or the endogenous ligand 22R—HC (3) as positive controls. […] Then, the induction of genes involved in the lipogenesis using the hepatic cell line HepG2. 43,22 was evaluated. […] Over the time, indeed, substantial efforts have been dedicated to the identification of LXR ligands able to turning on ABC transporter genes, without affecting lipogenic genes levels. This task is still one of the major challenge to the discovery of a clinically useful LXR modulator for atherosclerosis.
# as §5
# SREBP1c = experiment: qPCR of SREBP1c expression in PMA-differentiated U937 cells; assay type: cell-based, human; settings: U937 differentiated with PMA 72 h; 10 μM, 6 hours
# Experimental: as §6, §7, §5
# SCD1 = experiment: qPCR of SCD1 expression in PMA-differentiated U937 cells; assay type: cell-based, human; settings: U937 differentiated with PMA 72 h; 10 μM, 6 hours
# Experimental: as §6, §7, §5
# [2] = system: murine Lewis lung carcinoma cells (LLC); experiment: growth of LLC tumor cells in vitro; assay type: cell-based; settings: 96 hours, 10 μM
# Text: (§8) We have performed a set of experiments to evaluate whether some LXR modulators, particularly PFM009 (13) and PFM018 (25) influence the growth of the murine Lewis lung carcinoma cells (LLC) in vitro and in vivo.
# Abca1 [3] = experiment: qPCR of LXR target gene Abca1 in LLC tumor cells; assay type: cell-based, murine
# Text: as §8
# LLC tumor = LLC tumor growth in vivo in C57BL/6 mice; settings: 1×10^6 LLC cells subcutaneously, 30 mg/Kg/day for five consecutive days from day six
# Experimental: Then, we tested whether these compounds could influence LLC tumor growth in vivo. To do that, C57BL/6 mice were challenged with 1×10^6 LLC tumor cells subcutaneously. Six days later, tumor-bearing mice were treated with PFM009 or PFM018 (30 mg/Kg/day) for five consecutive days and then evaluated for tumor growth.
# [4] = % of compound effect versus 8 μM of 22R-HC
Compound,EC50 (hLXRα) [µM],Emax (hLXRα; [4]) [%],LXR isoform selectivity profile (hLXRα),PXR activation (hPXR),inhibition of CCL2 expression (MCP-1/CCL2),inhibition of TNFα expression (TNFα),EC50 (hLXRβ) [µM],LXRα Efficacy (%) ± SD (hLXRα; [4]),Emax (hLXRα) [%],"Emax (hLXRβ; HEK293, 24 h, read-out: LXRβ Efficacy (%) ± SD, % of compound effect versus 8 μM of 22R-HC) [%]",beta/alfa efficacy ratio (hLXRβ; LXRβ efficacy over LXRα efficacy),ABCA1 expression (ABCA1 [1]),SREBP-1c up-regulation (SREBP1c),SCD1 expression (SCD1),LLC tumor growth in vitro [2],expression of the LXR target gene Abca1 (Abca1 [3]),LLC tumor growth in vivo (LLC tumor)
"CC(C)[C@@H](C)[C@@H](O)C[C@@H](C)[C@H]1CC[C@H]2C3=CC=C4C[C@@H](O)CC[C@]4(C)[C@H]3CC[C@]12C [Compound 21, (23S)-3β-Ergost-5,7-diene-3,23-diol]",8.07 ± 1.6,159 ± 41.3,selective LXRα agonists,slight activation of PXR,same grade of potency of the positive control T0901317,the most active,,,,,,,,,,,
"CC(C)[C@@H](C)C[C@H](O)[C@@H](C)[C@H]1CC[C@H]2C3=CC=C4C[C@@H](O)CC[C@]4(C)[C@H]3CC[C@]12C [Compound 22, (22S)-3β-Ergost-5,7-diene-3,22-diol]",6.61 ± 1.69,,,slight activation of PXR,same grade of potency of the positive control T0901317,,1.96 ± 0.1,,,,,,,,,,
"CC[C@H](C(=O)C[C@@H](C)[C@H]1CC[C@H]2[C@@H]3CC=C4C[C@@H](O)CC[C@]4(C)[C@H]3CC[C@]12C)C(C)C [Compound 25, 3β-Hydroxystigmast-5-ene-23-one]",14.5,,good selectivity for the LXRβ isoform in terms of EC50; also recorded: LXRβ-selective agonist; also recorded: selective LXRβ agonist,,,the most active,6.02 ± 1.2,lowest efficacy at LXRα,12.4 ± 4.2,~50,3.7,strong induction of ABCA1 expression,poor activators of SREBP1c and SCD1,poor activators of SREBP1c and SCD1,not able to alter LLC tumor growth in vitro,induced the expression of the LXR target gene Abca1,significant control of LLC tumor growth
